Measurements: US8535706B2, “Bone implant” (Duquesne University of the Holy Spirit, priority 2010, dated 2013)

Assays:
mesenchymal stem cells = conditions: cited from earlier work
[1] = Heat stability of Melatonin adsorbed or linked to a substrate; format: physicochemical
Excerpt: In the practice of the invention, the coadministration, adsorption or linking of Melatonin to the bone graft substrate preferably involves Melatonin per se, although the use of the precursors or metabolites of Melatonin (including but not limited to 5-hydroxytryptophan (5OHTrp), 5-hydroxytryptamine (5HT), N-acetyl-5-hydroxytryptamine (NA5OHT) or 6-hydroxymelatonin (6OHMEL)) still falls within the scope of this invention albeit in a less preferred way.

Molecule	spreading of the cells (mesenchymal stem cells; mesenchymal stem cells)	attachment of mesenchymal stem cells (mesenchymal stem cells; substrates: hydroxyapatite, titanium, polymer scaffolds)	stability to autoclaving ([1]; adsorbed or linked to substrate, autoclaved such as at 180° C.)	stability to sintering ([1]; sintering temperatures used to make bone grafts and implants)
arg-gly-asp [RDG peptide]	does not enhance the spreading	can increase the attachment		
COc1ccc2[nH]cc(CCNC(C)=O)c2c1 [Melatonin, N-acetyl-5-methoxytryptamine]			surviving the autoclaving process intact	cannot survive
